We go through 14 molecules from ChEMBL document CHEMBL3397027, “Design, synthesis and evaluation of chromone-2-carboxamido-alkylbenzylamines as multifunctional agents for the treatment of Alzheimer's disease” (Bioorg Med Chem, 2015).

In series [1] the target is T1, Acetylcholinesterase (Rattus norvegicus, UniProt P37136).
T1 sequence (P37136 whole entry): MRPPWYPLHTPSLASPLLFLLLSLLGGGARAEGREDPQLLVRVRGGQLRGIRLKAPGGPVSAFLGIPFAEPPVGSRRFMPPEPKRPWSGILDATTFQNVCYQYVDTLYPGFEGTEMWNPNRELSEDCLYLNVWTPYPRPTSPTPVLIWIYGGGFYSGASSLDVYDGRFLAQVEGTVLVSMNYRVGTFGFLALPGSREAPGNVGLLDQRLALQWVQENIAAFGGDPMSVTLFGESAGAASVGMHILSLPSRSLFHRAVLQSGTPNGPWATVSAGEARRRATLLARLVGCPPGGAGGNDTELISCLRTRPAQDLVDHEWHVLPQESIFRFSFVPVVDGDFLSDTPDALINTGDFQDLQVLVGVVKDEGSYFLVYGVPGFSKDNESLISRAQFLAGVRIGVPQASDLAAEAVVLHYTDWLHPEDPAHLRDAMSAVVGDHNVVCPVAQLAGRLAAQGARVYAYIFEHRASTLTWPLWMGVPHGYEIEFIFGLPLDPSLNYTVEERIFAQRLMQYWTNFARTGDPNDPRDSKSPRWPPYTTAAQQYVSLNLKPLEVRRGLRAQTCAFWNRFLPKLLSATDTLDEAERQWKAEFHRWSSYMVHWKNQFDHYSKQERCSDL
Description: Inhibition of AChE from rat cortex homogenate using acetylthiocholine iodide as substrate after 15 mins by Ellman method.

Series [2] can be described thus: Inhibition of rat serum BuChE using butyrylthiocholine iodide as substrate after 15 mins by Ellman method. Type of series: cell-free. Background: In Ellman's method for cholinesterases, released thiocholine reacts with DTNB.
Series [3] addresses Acetylcholinesterase (Electrophorus electricus, UniProt O42275). Description: Inhibition of electric eel AChE using acetylthiocholine iodide as substrate after 15 mins by Ellman method. The note with it: read-out: IC50.
A further series is filed under the species Rattus norvegicus. Description: Selectivity index, ratio of IC50 for rat serum BuChE to IC50 for AChE from rat cortex homogenate. Format: cell-free.
Series [4] in a line: Antioxidant activity assessed as AAPH scavenging activity measured as trolox equivalent at 5 uM after 15 mins by ORAC-FL method relative to control. The note with it: 0.25 h. Format: physicochemical.
Series [5] addresses Amyloid-beta precursor protein (Homo sapiens) (UniProt P05067). Description: Inhibition of self-mediated aggregation of amyloid beta (1-42) (unknown origin) at 25 uM after 24 hrs by thioflavin T fluorescence-based fluorimetric method.
Series [6] has the same target. Description: Inhibition of Cu2+-mediated aggregation of amyloid beta (1-42) (unknown origin) at 25 uM after 24 hrs by thioflavin T fluorescence-based fluorimetric method.

Acetylcholinesterase (Electrophorus electricus, UniProt O42275), sequence (O42275 whole entry): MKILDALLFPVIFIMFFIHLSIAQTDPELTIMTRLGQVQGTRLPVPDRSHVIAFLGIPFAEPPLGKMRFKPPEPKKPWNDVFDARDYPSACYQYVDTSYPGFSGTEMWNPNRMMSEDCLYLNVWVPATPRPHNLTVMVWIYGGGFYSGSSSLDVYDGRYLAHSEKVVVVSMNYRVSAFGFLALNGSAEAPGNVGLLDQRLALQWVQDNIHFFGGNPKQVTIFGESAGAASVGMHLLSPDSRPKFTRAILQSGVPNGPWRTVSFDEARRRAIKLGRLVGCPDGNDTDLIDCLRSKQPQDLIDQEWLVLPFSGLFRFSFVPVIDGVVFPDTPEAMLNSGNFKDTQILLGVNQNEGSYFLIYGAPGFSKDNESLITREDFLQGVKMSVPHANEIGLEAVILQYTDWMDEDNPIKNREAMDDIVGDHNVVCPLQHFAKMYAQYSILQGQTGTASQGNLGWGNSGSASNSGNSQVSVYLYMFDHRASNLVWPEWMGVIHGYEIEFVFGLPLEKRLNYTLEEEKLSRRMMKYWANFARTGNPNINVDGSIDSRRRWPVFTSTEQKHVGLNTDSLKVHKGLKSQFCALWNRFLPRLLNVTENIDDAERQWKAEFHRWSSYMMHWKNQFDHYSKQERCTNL
Amyloid-beta precursor protein (Homo sapiens), sequence (P05067 whole entry): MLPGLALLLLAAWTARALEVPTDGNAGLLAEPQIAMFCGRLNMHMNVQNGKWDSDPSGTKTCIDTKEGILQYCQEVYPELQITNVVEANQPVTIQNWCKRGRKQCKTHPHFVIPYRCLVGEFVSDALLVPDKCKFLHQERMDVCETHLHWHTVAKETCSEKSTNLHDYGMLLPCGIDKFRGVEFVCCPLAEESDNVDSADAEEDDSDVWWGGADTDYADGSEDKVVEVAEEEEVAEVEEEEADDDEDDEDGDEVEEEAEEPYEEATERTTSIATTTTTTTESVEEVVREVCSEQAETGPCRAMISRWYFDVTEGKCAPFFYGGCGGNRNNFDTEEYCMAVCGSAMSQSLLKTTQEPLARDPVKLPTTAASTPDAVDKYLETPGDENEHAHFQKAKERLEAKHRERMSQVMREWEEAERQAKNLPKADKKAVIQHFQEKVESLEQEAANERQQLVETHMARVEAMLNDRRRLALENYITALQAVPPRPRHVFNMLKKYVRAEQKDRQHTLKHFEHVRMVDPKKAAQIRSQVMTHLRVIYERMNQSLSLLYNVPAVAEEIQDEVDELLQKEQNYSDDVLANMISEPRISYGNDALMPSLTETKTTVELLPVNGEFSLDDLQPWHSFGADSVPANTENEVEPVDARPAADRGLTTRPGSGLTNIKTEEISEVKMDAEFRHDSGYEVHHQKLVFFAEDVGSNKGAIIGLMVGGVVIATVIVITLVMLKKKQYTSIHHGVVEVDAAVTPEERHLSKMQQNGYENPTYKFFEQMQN

Turning to `CCN(CCCNC(=O)c1cc(=O)c2c(O)cc(O)cc2o1)Cc1ccccc1OC`, the values for the IC50 (against Acetylcholinesterase [1]; in series [2]; on Acetylcholinesterase [3]) were 6.85 µM, > 200 µM and 49.7 µM, respectively. In addition, the Ratio IC50 in the series listed under Rattus norvegicus was > 29.2. For the same molecule, the “fold change (FC)” value in series [4] stood at 2.1. In addition, the inhibition came to 35.1% in series [5] and 18.1% in series [6].
On to `CCN(CCCCNC(=O)c1cc(=O)c2c(O)cc(OC)cc2o1)Cc1ccccc1N(C)C`, for which the IC50 at Acetylcholinesterase [1] came to 0.31 µM; in series [2], 74.1 µM; at Acetylcholinesterase [3], 0.92 µM. Moreover, the Ratio IC50 in the series filed under Rattus norvegicus came to 239. The “fold change (FC)” value in series [4] was determined as 0.97. Moreover, the inhibition in series [5] was 25.6%; in series [6], 20%.
As to `CCN(CCCNC(=O)c1cc(=O)c2c(O)cccc2o1)Cc1ccccc1OC`, the values for the IC50 (against Acetylcholinesterase [1]; in series [2]; at Acetylcholinesterase [3]) were 0.41 µM, 93.4 µM and 13.9 µM, respectively. In addition, in the series filed under Rattus norvegicus, the Ratio IC50 turned out to be 228. In addition, in series [4], the “fold change (FC)” value worked out at 1.13. The inhibition in series [5] was determined as 48.7%; in series [6], 35.2%.
Regarding `COc1cc(O)c2c(=O)cc(C(=O)NCCCCN3CCOc4ccccc4C3)oc2c1`, the IC50 (against Acetylcholinesterase [1]; in series [2]; at Acetylcholinesterase [3]) was > 200 µM each time. The “fold change (FC)” value in series [4] is reported as 0.68. The inhibition in series [5] stood at 40.9%; in series [6], 35%.
Regarding `CCN(CCCCNC(=O)c1cc(=O)c2c(O)cc(N(C)C)cc2o1)Cc1ccccc1OC`, the IC50 against Acetylcholinesterase [1] stood at 0.91 µM; in series [2], 109 µM; at Acetylcholinesterase [3], 4.02 µM. The Ratio IC50 in the series listed under Rattus norvegicus was found to be 120. Also, the “fold change (FC)” value in series [4] worked out at 1.05. The inhibition stood at 41.1% in series [5] and 36.9% in series [6].
For the molecule `CN(CCCNC(=O)c1cc(=O)c2c(O)cccc2o1)Cc1ccccc1`, the values for the IC50 (against Acetylcholinesterase [1]; in series [2]; at Acetylcholinesterase [3]) were 19.6 µM, 120 µM and 24.4 µM, respectively. Further, the Ratio IC50 in the series listed under Rattus norvegicus came to 6.1. In series [4], the “fold change (FC)” value is 0.85. Also, the inhibition in series [5] was determined as 43.9%; in series [6], 25.8%.
On to `COc1cc(O)c2c(=O)cc(C(=O)NCCCCN(C)Cc3ccccc3)oc2c1`, for which the IC50 against Acetylcholinesterase [1] stood at 7.5 µM; in series [2], 135 µM; on Acetylcholinesterase [3] it was 5.86 µM. Further, the Ratio IC50 in the series listed under Rattus norvegicus was 17.9. In series [4], the “fold change (FC)” value was 0.79. Also, the values for the inhibition in series [5] and in series [6] were 24.4% and 35.3%, respectively.
Molecule `COc1cc(/C=C/C(=O)CC(=O)/C=C/c2ccc(O)c(OC)c2)ccc1O` yielded an inhibition in series [6] of 58%.
Regarding `CCN(CCCCNC(=O)c1cc(=O)c2c(O)cc(OC)cc2o1)Cc1ccccc1`, the IC50 was 1.81 µM against Acetylcholinesterase [1], 128 µM in series [2] and 1.45 µM on Acetylcholinesterase [3]. In addition, in the series listed under Rattus norvegicus, the Ratio IC50 is 71. Also, the “fold change (FC)” value in series [4] came out at 0.65. In addition, the inhibition was 39% in series [5] and 34.1% in series [6].
For the molecule `COc1cc(O)c2c(=O)cc(C(=O)O)oc2c1`, the IC50 (at Acetylcholinesterase [1]; in series [2]; at Acetylcholinesterase [3]) was > 200 µM throughout. Further, in series [4], the “fold change (FC)” value is given as 0.87.
Consider `O=C(O)c1cc(=O)c2c(O)cc(O)cc2o1`, for which the IC50 (against Acetylcholinesterase [1]; in series [2]; on Acetylcholinesterase [3]) was > 200 µM in each case. Moreover, in series [4], the “fold change (FC)” value stood at 2.01.
For `CCOC(=O)c1cc(=O)c2c(O)cccc2o1`, the IC50 (on Acetylcholinesterase [1]; in series [2]; at Acetylcholinesterase [3]) was > 200 µM each time. Moreover, in series [4], the “fold change (FC)” value stood at 0.78.
Turning to `CN(C)c1cc(O)c2c(=O)cc(C(=O)O)oc2c1`, the IC50 (against Acetylcholinesterase [1]; in series [2]; at Acetylcholinesterase [3]) was > 200 µM in each case. Moreover, the “fold change (FC)” value in series [4] is 0.95.
In series [2], `COc1cc2c(cc1OC)C(=O)C(CC1CCN(Cc3ccccc3)CC1)C2` (stereo not drawn) [DONEPEZIL] returned an IC50 of 20.7 µM.

As a reminder, the IC50 is the concentration that inhibits the measured activity by half. One may read the inhibition as how much of the control response was suppressed. Read a high inhibition as strong suppression.
